Measured values reported in PMC7407621, “Enhancing a de novo enzyme activity by computationally-focused ultra-low-throughput screening” (Chemical Science, 2020).

System: GNCA4-WT (GNCA4-W229D/F290W)
Conditions: pH 7, 25 °C, 100 mM NaCl, 5% acetonitrile, His-tag

## O=[N+]([O-])c1ccc2oncc2c1 [5-nitrobenzisoxazole]
  Km: 3.7 ± 0.8 mM
